Experimental data taken from PubChem BioAssay AID1963423 (Molecular Pharmacology Branch, DTP, NCI, 2024).

Test system: 439559-082-T-J2-PDC complex spheroid growth
Experiment: Anticancer human tumor 439559-082-T-J2-PDC patient-derived colon adenocarcinoma cell line growth inhibition [Asc]
Settings: for IC50: curve of first compound; for viability, T/C: stronger effect = lower value
Method in brief: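 Tumor cells were grown as multicellular spheroids with stromal HUVEC and mesenchymal stem cells and treated singly or in combination. Concentrations fell in half-log steps from the clinical Cmax, or from 10 microM where none was known.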

[1] = second compound 0.1 µM, first compound 0.0316 µM
[2] = second compound 0.1 µM, first compound 0.1 µM
[3] = second compound 0.1 µM, first compound 0.316 µM
[4] = second compound 0.1 µM, first compound 1 µM
[5] = second compound 0.316 µM, first compound 0.0316 µM
[6] = second compound 0.316 µM, first compound 0.1 µM
[7] = second compound 0.316 µM, first compound 0.316 µM
[8] = second compound 0.316 µM, first compound 1 µM
[9] = second compound 1 µM, first compound 0.0316 µM
[10] = second compound 1 µM, first compound 0.1 µM
[11] = second compound 1 µM, first compound 0.316 µM
[12] = second compound 1 µM, first compound 1 µM
[13] = second compound 3.16 µM, first compound 0.0316 µM
[14] = second compound 3.16 µM, first compound 0.1 µM
[15] = second compound 3.16 µM, first compound 0.316 µM
[16] = second compound 3.16 µM, first compound 1 µM
[17] = second compound 10 µM, first compound 0.0316 µM
[18] = second compound 10 µM, first compound 0.1 µM
[19] = second compound 10 µM, first compound 0.316 µM
[20] = second compound 10 µM, first compound 1 µM
[21] = second compound 0.1 µM, first compound 0.00316 µM
[22] = second compound 0.1 µM, first compound 0.01 µM
[23] = second compound 0.316 µM, first compound 0.00316 µM
[24] = second compound 0.316 µM, first compound 0.01 µM
[25] = second compound 1 µM, first compound 0.00316 µM
[26] = second compound 1 µM, first compound 0.01 µM
[27] = second compound 3.16 µM, first compound 0.00316 µM
[28] = second compound 3.16 µM, first compound 0.01 µM
[29] = second compound 10 µM, first compound 0.00316 µM
[30] = second compound 10 µM, first compound 0.01 µM
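Note: spheroids exposed to agents for 7 days starting day 3 after seeding.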
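Throughout, for viability, T/C: percent of DMSO vehicle control viability with 100% = vehicle.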

SMILES | IC50 (second compound 0.1 µM) | IC50 (second compound 0.316 µM) | IC50 (second compound 1 µM) | IC50 (second compound 3.16 µM) | IC50 (second compound 10 µM) | viability, T/C [1] | viability, T/C [2] | viability, T/C [3] | viability, T/C [4] | viability, T/C [5] | viability, T/C [6] | viability, T/C [7] | viability, T/C [8] | viability, T/C [9] | viability, T/C [10] | viability, T/C [11] | viability, T/C [13] | viability, T/C [14] | viability, T/C [17] | viability, T/C [18] | further results
C=CC(=O)N1CCN(c2nc(=O)n(-c3c(C)ccnc3C(C)C)c3nc(-c4c(O)cccc4F)c(F)cc23)C(C)C1 (stereo not given) + Cc1c(S(C)(=O)=O)c(-c2cc(F)cc(N3CCN(c4ccc(NS(=O)(=O)c5ccc(NC(CCN6CCC(C(=O)OCCCP(=O)(O)O)CC6)CSc6ccccc6)c(S(=O)(=O)C(F)(F)F)c5)cc4)CC3)c2)c(-c2ccc(Cl)cc2)n1C(C)C | > 10000 nM | > 10000 nM | > 10000 nM | > 10000 nM | > 10000 nM | 97.6% | 112% | 99.2% | 97.4% | 93.5% | 107% | 108% | 98.2% | 99.1% | 102% | 105% | 99.1% | 101% | 78% | 80% | viability, T/C (second compound 0.1 µM, first compound 3.16 µM): 109%; viability, T/C (second compound 0.1 µM, first compound 10 µM): 99.8%; viability, T/C (second compound 0.316 µM, first compound 3.16 µM): 96.6%; viability, T/C (second compound 0.316 µM, first compound 10 µM): 88.3%; viability, T/C [12]: 88.9%; viability, T/C (second compound 1 µM, first compound 3.16 µM): 89.8%; viability, T/C (second compound 1 µM, first compound 10 µM): 91.6%; viability, T/C [15]: 103%; viability, T/C [16]: 89.1%; viability, T/C (second compound 3.16 µM, first compound 3.16 µM): 88.1%; viability, T/C (second compound 3.16 µM, first compound 10 µM): 94.6%; viability, T/C [19]: 80.5%; viability, T/C [20]: 73.8%; viability, T/C (second compound 10 µM, first compound 3.16 µM): 87.6%; viability, T/C (second compound 10 µM, first compound 10 µM): 81.3%
COc1c(OCCCN2CCOCC2)ccc2c3n(c(=NC(=O)c4cnc(N)nc4)nc12)CCN3 + Cc1c(S(C)(=O)=O)c(-c2cc(F)cc(N3CCN(c4ccc(NS(=O)(=O)c5ccc(NC(CCN6CCC(C(=O)OCCCP(=O)(O)O)CC6)CSc6ccccc6)c(S(=O)(=O)C(F)(F)F)c5)cc4)CC3)c2)c(-c2ccc(Cl)cc2)n1C(C)C | > 1000 nM | > 1000 nM | > 1000 nM | 312 nM | 101 nM | 85.8% | 63.8% | 67.1% | 55% | 90.8% | 63.4% | 62% | 54.1% | 82.6% | 64.6% | 59% | 79.9% | 59.5% | 72% | 50.4% | viability, T/C [21]: 97.8%; viability, T/C [22]: 98.6%; viability, T/C [23]: 95.9%; viability, T/C [24]: 97.9%; viability, T/C [25]: 90.2%; viability, T/C [26]: 89.7%; viability, T/C [12]: 49.7%; viability, T/C [27]: 85.6%; viability, T/C [28]: 84.8%; viability, T/C [15]: 50.8%; viability, T/C [16]: 48%; viability, T/C [29]: 69%; viability, T/C [30]: 84.7%; viability, T/C [19]: 36.9%; viability, T/C [20]: 37.2%
NC1CCC(NC2CC2c2ccccc2)CC1 (stereo not given) + Cc1c(S(C)(=O)=O)c(-c2cc(F)cc(N3CCN(c4ccc(NS(=O)(=O)c5ccc(NC(CCN6CCC(C(=O)OCCCP(=O)(O)O)CC6)CSc6ccccc6)c(S(=O)(=O)C(F)(F)F)c5)cc4)CC3)c2)c(-c2ccc(Cl)cc2)n1C(C)C | > 100 nM | > 100 nM | > 100 nM | > 100 nM | > 100 nM | 113% | 102% | – | – | 105% | 113% | – | – | 97.8% | 104% | – | 89.9% | 104% | 85.1% | 86% | viability, T/C (second compound 0.1 µM, first compound 0.000316 µM): 101%; viability, T/C (second compound 0.1 µM, first compound 0.001 µM): 115%; viability, T/C [21]: 100%; viability, T/C [22]: 93.1%; viability, T/C (second compound 0.316 µM, first compound 0.000316 µM): 99.4%; viability, T/C (second compound 0.316 µM, first compound 0.001 µM): 114%; viability, T/C [23]: 104%; viability, T/C [24]: 103%; viability, T/C (second compound 1 µM, first compound 0.000316 µM): 96.6%; viability, T/C (second compound 1 µM, first compound 0.001 µM): 107%; viability, T/C [25]: 117%; viability, T/C [26]: 89.7%; viability, T/C (second compound 3.16 µM, first compound 0.000316 µM): 95.2%; viability, T/C (second compound 3.16 µM, first compound 0.001 µM): 108%; viability, T/C [27]: 109%; viability, T/C [28]: 90.8%; viability, T/C (second compound 10 µM, first compound 0.000316 µM): 88.3%; viability, T/C (second compound 10 µM, first compound 0.001 µM): 96.4%; viability, T/C [29]: 87.1%; viability, T/C [30]: 88.2%
